In PMC6627609, “Targeting Quorum Sensing: High-Throughput Screening to Identify Novel LsrK Inhibitors” (International Journal of Molecular Sciences, 2019):
pIC50: −log10 of the molar value. Structures can show the parent of a compound that is named as a salt.

What follows are molecules tested against LsrK (Salmonella typhimurium, UniProt Q8ZKQ6) (assay: biochemical). Settings: not given.
Assay type: biochemical, S. typhimurium

Sequence of LsrK (Q8ZKQ6 whole entry): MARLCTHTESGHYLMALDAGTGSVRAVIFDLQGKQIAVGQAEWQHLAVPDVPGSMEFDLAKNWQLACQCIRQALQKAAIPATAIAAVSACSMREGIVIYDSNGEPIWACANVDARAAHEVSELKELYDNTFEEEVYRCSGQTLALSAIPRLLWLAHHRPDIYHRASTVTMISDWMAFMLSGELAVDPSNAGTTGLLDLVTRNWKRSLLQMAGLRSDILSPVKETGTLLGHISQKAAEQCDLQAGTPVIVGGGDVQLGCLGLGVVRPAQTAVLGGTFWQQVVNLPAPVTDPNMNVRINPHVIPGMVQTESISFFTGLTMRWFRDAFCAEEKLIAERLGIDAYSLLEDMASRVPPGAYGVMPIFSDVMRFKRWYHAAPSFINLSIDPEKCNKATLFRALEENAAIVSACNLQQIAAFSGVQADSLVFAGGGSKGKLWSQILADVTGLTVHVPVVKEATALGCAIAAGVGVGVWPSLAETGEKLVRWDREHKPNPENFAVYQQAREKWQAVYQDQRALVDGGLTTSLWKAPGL

Q: Which inhibition at 50 µM does the source give for `O=C(/C=C/c1ccccc1)c1ccc(O)cc1` [4'-HYDROXYCHALCONE] here?
A: 38%

Q: Which inhibition at 50 µM does the source give for `COc1ccc(C(=O)/C=C/c2ccccc2)cc1` [4'-METHOXYCHALCONE] here?
A: 12%

Q: For `C=CC(C1=CC(=O)C(OC)=CC1=O)c1ccccc1` (stereo not drawn) [4-METHOXYDALBERGIONE], which inhibition at 50 µM is on record?
A: 52%

Q: Which inhibition at 50 µM does the source give for `Cc1cc(=O)oc2c(O)c(O)ccc12` [4-METHYLDAPHNETIN] here?
A: 1%

Q: Which inhibition at 50 µM does the source give for `Cc1cc(=O)oc2cc(O)c(O)cc12` [4-METHYLESCULETIN] here?
A: 2%

Q: With `CC(C)CCC[C@@H](C)[C@H]1CC[C@H]2[C@@H]3CC(=O)[C@H]4C[C@@H](O)CC[C@]4(C)[C@H]3CC[C@]12C` [5alpha-CHOLESTAN-3beta-OL-6-ONE] as the molecule, how does the inhibition at 50 µM read?
A: 1%

Q: `CC(=O)O[C@H]1C[C@@H](OC(C)=O)C(C)(C)[C@@H]2CC(=O)[C@]3(C)[C@H](CC[C@@]4(C)[C@H](c5ccoc5)OC(=O)[C@H]5O[C@]543)[C@@]12C` [7-DEACETOXY-7-OXOKHIVORIN] was tested. Which pIC50 did it give?
A: 5.52

Q: And the inhibition at 50 µM?
A: 133%

Q: How did the pIC50 turn out when `O=C(O)c1cc(O)c(=O)c2c(O)c(O)ccc2c1` [7-DESHYDROXYPYROGALLIN-4-CARBOXYLIC ACID] was run?
A: 5.15

Q: And the inhibition at 50 µM?
A: 107%

Q: How did the inhibition at 50 µM turn out when `O=[N+]([O-])c1cccc2cn[nH]c12` [7-NITROINDAZOLE] was run?
A: 1%

Q: `CC[C@@]1(O)C(=O)OCc2c1cc1n(c2=O)Cc2cc3cc(O)ccc3nc2-1` [10-HYDROXYCAMPTOTHECIN] was tested. Which inhibition at 50 µM did it give?
A: 1%

Q: Which inhibition at 50 µM does the source give for `COc1ccc2c(c1)OC1(O)COc3cc(OC)c(OC)cc3C1=C2` (stereo not drawn) [12a-HYDROXY-5-DEOXYDEHYDROMUNDUSERONE] here?
A: 0%

Q: How did the inhibition at 50 µM turn out when `COc1cc2c(cc1OC)C1(O)C(=O)c3ccc(O)c(C(=O)O)c3OC1CO2` (stereo not drawn) [12a-HYDROXY-9-DEMETHYLMUNDUSERONE-8-CARBOXYLIC ACID] was run?
A: 3%

Q: With `COc1ccc(-c2cc(=O)c3c(OC(C)=O)cc(OC(C)=O)cc3o2)cc1` [ACACETIN DIACETATE] as the molecule, how does the inhibition at 50 µM read?
A: 0%

Q: With `NC(=O)c1ncn([C@@H]2O[C@H](CO)[C@@H](O)[C@H]2O)c1N` [ACADESINE] as the molecule, how does the inhibition at 50 µM read?
A: 0%

Q: `CCCC(=O)Nc1ccc(OCC(O)CNC(C)C)c(C(C)=O)c1` (stereo not drawn) [ACEBUTOLOL HYDROCHLORIDE] was tested. Which inhibition at 50 µM did it give?
A: 0%

Q: How did the inhibition at 50 µM turn out when `CC(=O)Nc1ccccc1` [ACETANILIDE] was run?
A: 1%

Q: How did the inhibition at 50 µM turn out when `COc1cc(C(C)=O)cc(OC)c1O` [ACETOSYRINGONE] was run?
A: 8%

Q: What does the source list for `CC(=O)Oc1c2c(c(CC=C(C)C)c3c1C(=O)C1=C[C@@H]4CC5C(C)(C)OC(C/C=C(\C)C(=O)O)(C4=O)[C@@]15O3)OC(C)(CCC=C(C)C)C=C2` (stereo partly drawn) [ACETYL I[…]]?
A: pIC50: 5.40; inhibition at 50 µM: 141%

Q: Which inhibition at 50 µM does the source give for `CC(=O)N[C@@H](CC(C)C)C(=O)O` [ACETYL-L-LEUCINE] here?
A: 0%

Q: `CC(=O)N[C@@H](Cc1c[nH]c2ccccc12)C(N)=O` [ACETYLTRYPTOPHANAMIDE] was tested. Which inhibition at 50 µM did it give?
A: 1%

Q: `CC(=O)N[C@@H](Cc1c[nH]c2ccccc12)C(=O)O` [ACETYLTRYPTOPHAN] was tested. Which inhibition at 50 µM did it give?
A: 6%

Q: `O=C(O)/C=C(\CC(=O)O)C(=O)O` [ACONITIC ACID] was tested. Which inhibition at 50 µM did it give?
A: 1%

Q: How did the inhibition at 50 µM turn out when `CCN1C[C@]2(COC)[C@H](O)C[C@H](OC)[C@@]34[C@@H]5C[C@@]6(O)[C@H](OC(=O)c7ccccc7)[C@@H]5[C@@](OC(C)=O)([C@@H]([C@H](OC)[C@H]23)[C@@H]14)[C@@H](O)[C@@H]6OC` [ACONITINE] was run?
A: 1%

Q: `Nc1nc2c(ncn2COCCO)c(=O)[nH]1` [ACYCLOVIR] was tested. Which inhibition at 50 µM did it give?
A: 8%

Q: With `Nc1ncnc2[nH]cnc12` [ADENINE] as the molecule, how does the inhibition at 50 µM read?
A: 1%

Q: For `CCN(CC)CCOC(=O)C(c1ccccc1)c1ccccc1` [ADIPHENINE HYDROCHLORIDE], which inhibition at 50 µM is on record?
A: 0%

Q: `NCCCCN=C(N)N` [AGMATINE SULFATE] was tested. Which inhibition at 50 µM did it give?
A: 0%

Same assay, conditions: 50 µM

Q: For `COC(=O)C[C@H]1C(C)(C)[C@@H](O)[C@@H]2CC3=C4CC(O)O[C@@H](c5ccoc5)[C@]4(C)CCC3[C@@]1(C)C2=O` (stereo partly drawn) [3.16-DIDEOXYMEXICANOLIDE-3beta-DIOL], which “Inhibition (%)” value is on record?
A: 0

Q: `CC(=O)O[C@H]1CC[C@]2(C)[C@H]3CC[C@@]4(C)[C@H](c5ccoc5)OC(=O)[C@H]5O[C@]54[C@]3(C)[C@H](OC(C)=O)C[C@H]2C1(C)C` [3beta-ACETOXYDEOXODIHYDROGEDUNIN] was tested. Which “Inhibition (%)” value did it give?
A: 2

Q: For `C[C@@H]1CC[C@@]2(OC1)O[C@H]1C[C@H]3[C@@H]4CC[C@H]5C[C@@H](O)CC[C@]5(C)C4=CC[C@]3(C)[C@H]1[C@@H]2C` [3beta-HYDROXYISOALLOSPIROST-9(11)-ENE], which “Inhibition (%)” value is on record?
A: 2

Q: `CCCCOc1cc(CC2CNC(=O)N2)ccc1OC` (stereo not drawn) [4-(3-BUTOXY-4-METHOXYBENZYL)IMIDAZOLIDIN-2-ONE] was tested. Which “Inhibition (%)” value did it give?
A: 1

Q: With `COc1cc(O)c(C(C)=O)c(O)c1` [4-O-METHYLPHLORACETOPHENONE] as the molecule, how does the “Inhibition (%)” value read?
A: 2

Q: Which “Inhibition (%)” value does the source give for `C=CC(C1=CC(=O)C(OC)=CC1=O)c1ccc(OC)cc1` (stereo not drawn) [4.4'-DIMETHOXYDALBERGIONE] here?
A: 98

Q: How did the “Inhibition (%)” value turn out when `O=c1c(-c2ccccc2)coc2cc(O)cc(O)c12` [5.7-DIHYDROXYISOFLAVONE] was run?
A: 106

Q: With `COc1ccc2[nH]c3c(c2c1)CCN=C3C` [6-METHOXYHARMALAN] as the molecule, how does the “Inhibition (%)” value read?
A: 2

Q: `COc1ccc2oc(-c3ccccc3OC)cc(=O)c2c1` [6.2'-DIMETHOXYFLAVONE] was tested. Which “Inhibition (%)” value did it give?
A: 1

Q: For `O=c1cc(-c2ccc(O)cc2)oc2ccc(O)cc12` [6.4'-DIHYDROXYFLAVONE], which “Inhibition (%)” value is on record?
A: 0

Q: How did the “Inhibition (%)” value turn out when `COc1ccc(-c2cc(=O)c3cc(OC)ccc3o2)cc1` [6.4'-DIMETHOXYFLAVONE] was run?
A: 2

Q: With `O=C(O)c1nc2cc(Cl)c(Cl)cc2nc1O` [6.7-DICHLORO-3-HYDROXY-2-QUINOXALINECARBOXYLIC ACID] as the molecule, how does the “Inhibition (%)” value read?
A: 1

Q: Which “Inhibition (%)” value does the source give for `CC(=O)OCC1=C(C(=O)O)N2C(=O)[C@@H](N)[C@H]2SC1` [7-AMINOCEPHALOSPORANIC ACID] here?
A: 64

Q: Which “Inhibition (%)” value does the source give for `CC(=O)O[C@H]1C[C@@H](OC(C)=O)C(C)(C)C2C[C@@H](O)[C@]3(C)C(CC[C@@]4(C)[C@H](c5ccoc5)OC(=O)[C@H]5O[C@]543)[C@]21C` (stereo partly drawn) [7-DEACETYLKHIVORIN] here?
A: 0

Q: Which “Inhibition (%)” value does the source give for `CC1(C)C(=O)C=C[C@]2(C)[C@H]3CC[C@@]4(C)[C@H](c5ccoc5)OC(=O)[C@H]5O[C@]54[C@]3(C)C=C[C@@H]12` [7-DESACETOXY-6.7-DEHYDROGEDUNIN] here?
A: 33

Q: With `O=c1cc(-c2ccccc2O)oc2cc(O)ccc12` [7.2'-DIHYDROXYFLAVONE] as the molecule, how does the “Inhibition (%)” value read?
A: 76

Q: For `O=c1cc(-c2ccc(O)cc2)oc2cc(O)ccc12` [7.4'-DIHYDROXYFLAVONE], which “Inhibition (%)” value is on record?
A: 1

Q: How did the “Inhibition (%)” value turn out when `COc1ccc(-c2coc3cc(OC)ccc3c2=O)cc1` [7.4'-DIMETHOXYISOFLAVONE] was run?
A: 1

Q: With `O=c1cc(-c2ccccc2)oc2c(O)c(O)ccc12` [7.8-DIHYDROXYFLAVONE] as the molecule, how does the “Inhibition (%)” value read?
A: 5

Q: Which “Inhibition (%)” value does the source give for `COC(=O)C[C@H]1C(C)(C)C2(O)OC34CC2C(=O)[C@]1(C)C3CC[C@]1(C)C4=CC(=O)O[C@H]1c1ccoc1` (stereo partly drawn) [8beta-HYDROXYCARAPIN. 3.8-HEMIACETAL] here?
A: 0

Q: For `CC(=O)O[C@@H]1C[C@]2(C)[C@@H](C(C)=O)CC[C@H]2[C@@H]2CCC3=CC(=O)CC[C@]3(C)[C@H]21` [11a-ACETOXYPROGESTERONE], which “Inhibition (%)” value is on record?
A: 23

Q: With `CC(C)c1ccc2c(c1)CCC1[C@](C)(CN)CCC[C@]21C.O=S(=O)(O)O` (stereo partly drawn) [18-AMINOABIETA-8.11.13-TRIENE SULFATE] as the molecule, how does the “Inhibition (%)” value read?
A: 1

Q: Which “Inhibition (%)” value does the source give for `CNC[C@H](O)c1ccc(O)c(O)c1.O=C(O)C(O)C(O)C(=O)O` [ADRENALINE BITARTRATE] here?
A: 15

Q: `O=c1ccc2cc(O[C@@H]3O[C@H](CO)[C@@H](O)[C@H](O)[C@H]3O)c(O)cc2o1` [AESCULIN] was tested. Which “Inhibition (%)” value did it give?
A: 1
